pIC50: −log10 of the molar value.
Each compound was assayed on 22Rv1 cells (assay: Cell viability assay (CellTiterGlo, 6 days) 22Rv1). Conditions: Homo sapiens, 22Rv1, 144 h; Table 7; cell viability, 6 days; read-out: 22RV1.
Format: cell-based
Experimental: Cell viability assay: LNCap, 22Rv1, and T47D cells were seeded at a density of 1500-2000 cells/well in 96 well plates, and a ‘T0’ (timepoint 0) was included along with the assay plate. The plates were then incubated at 37° C., 5% CO2 in a cell culture incubator overnight. On the next day, the ‘T0’ plate was assayed using CellTiterGlo (Promega, Inc) according to the manufacturer's instructions. The appropriate compounds were diluted in DMSO and added to the assay plate (final DMSO concentration of 0.2%) on the next day. The assay plates were incubated for 6 days at 37° C., 5% CO2. After the incubation period, the plates were assayed using CellTiterGlo (Promega, Inc) according to the manufacturer's instructions and luminescence was read on the EnVision plate reader. Inhibition the tested compounds was determined by the following formula: Inhibition rate (%)=(1−(RLU compound−RLU day0)/(RLU control−RLU day0))*100%. GraphPadPrism was used to analyze the data and determine absolute IC50 values.
With `C[C@@]12CCC(=O)C[C@H]1CC[C@H]1[C@H]2CC[C@]2(C)[C@@H]1CC[C@H]2OCCCCCCNC(=O)c1cc(Cc2n[nH]c(=O)c3ccccc23)ccc1F` (stereo in doubt) [Compound 1426, N-(6-((5R,8S,9R,10R,13R,14R,17R)-10,13-dimethyl-3-oxohexadecahydro-1H-cyclopenta[a]phenanthren-17-yloxy)hexyl)-2-fluoro-5-((4-oxo-3,4-dihydrophthalazin-1-yl)methyl)benzamide] the pIC50 was 5.00 to 6.00.
With `C[C@]12C[C@H](CCCCCC(=O)N3CCN(C(=O)c4cc(Cc5n[nH]c(=O)c6ccccc56)ccc4F)CC3)C3=C4CCC(=O)C=C4CC[C@H]3[C@@H]1CCC2O` (stereo partly drawn) [Compound 138, 4-(4-fluoro-3-(4-(6-((8S,11S,13S,14S)-17-hydroxy-13-methyl-3-oxo-2,3,6,7,8,11,12,13,14,15,16,17-dodecahydro-1H-cyclopenta[a]phenanthren-11-yl)hexanoyl)piperazine-1-carbonyl)benzyl)phthalazin-1(2H)-one] the pIC50 was 6.00 to 7.00.
For `Cn1ncnc1C1c2n[nH]c(=O)c3cc(F)cc(c23)N[C@@H]1c1ccc(NC(=O)CCCCCO[C@@H]2CC[C@H]3[C@@H]4CC[C@H]5CCCC[C@]5(C)[C@H]4CC[C@]23C)cc1` (stereo partly drawn) [Compound 1128, 6-((5R,8R,9S,10S,13S,14S,17R)-10,13-dimethylhexadecahydro-1H-cyclopenta[a]phenanthren-17-yloxy)-N-(4-((8S)-5-fluoro-9-(1-methyl-1H-1,2,4-triazol-5-yl)-3-oxo-3,7,8,9-tetrahydro-2H-pyrido[4,3,2-de]phthalazin-8-yl)phenyl)hexanamide], the pIC50 was 5.00 to 6.00.
Compound `C[C@]12Cc3cn[nH]c3C[C@@H]1CC[C@@H]1[C@@H]2CC[C@]2(C)[C@@H](OCCCCCC(=O)N3CCN(C(=O)c4cc(Cc5n[nH]c(=O)c6ccccc56)ccc4F)CC3)CC[C@@H]12` [Compound 1394, 4-(3-(4-(6-(((1S,3aS,3bR,5aS,10aS,10bS,12aS)-10a,12a-dimethyl-1,2,3,3a,3b,4,5,5a,6,7,10,10a,10b,11,12,12a-hexadecahydrocyclopenta[5,6]naphtho[1,2-f]indazol-1-yl)oxy)hexanoyl)piperazine-1-carbonyl)-4-fluorobenzyl)phthalazin-1(2H)-one] has a pIC50 of 6.00 to 7.00.

Source: patent US11952349B2, “Anti-cancer nuclear hormone receptor-targeting compounds” (Nuvation Bio Inc., priority 2019, dated 2024)
